Where a name gives a salt, the structure may show the parent alone.
Legend:
human Tie2 = target: T1, human Tie2 (Homo sapiens, UniProt Q02763); assay: Tie2 assay of PLC phosphorylation (FlashPlate); type: biochemical; details: read-out: IC 50 TIE2
T1 construct: amino acids of the intracellular domain 776-1124; made in house

human KDR enzyme = target: T2, human KDR enzyme (Homo sapiens, UniProt P35968); assay: KDR substrate phosphorylation assay (scintillation, 96-well plate); type: biochemical
T2 construct: The cytoplasmic domain of the human KDR enzyme was cloned in the form of a GST fusion; GST; made in house; host or cells: SF21 insect cells (baculovirus, pFastBac)
How it was run: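 GST-fused cytoplasmic domain of human KDR (Sf21-expressed, ~60% pure; 100 ng) mixed with compound at 4 °C in MOPS buffer pH 7.2 with Mg2+/Mn2+, DTT, EGTA, vanadate, NaF. Started with 2 μg GST-PLCγ SH2-SH3, γ33P-ATP and cold ATP (2 μM in starting solution); 1 h, 37 °C, EDTA stop. Result: % inhibition vs no-compound control.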

T1 sequence (Q02763 776-1124): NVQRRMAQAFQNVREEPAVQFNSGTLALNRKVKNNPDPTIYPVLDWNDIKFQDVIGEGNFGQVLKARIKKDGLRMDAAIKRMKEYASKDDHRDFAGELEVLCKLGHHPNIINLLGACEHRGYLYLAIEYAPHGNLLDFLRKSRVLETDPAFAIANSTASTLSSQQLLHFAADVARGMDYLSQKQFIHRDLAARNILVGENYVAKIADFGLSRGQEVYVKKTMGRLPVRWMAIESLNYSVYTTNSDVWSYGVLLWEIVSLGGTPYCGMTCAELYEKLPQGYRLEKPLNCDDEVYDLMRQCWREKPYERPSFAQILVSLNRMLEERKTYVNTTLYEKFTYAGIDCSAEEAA
T2 sequence (P35968 786-1356 limits assumed): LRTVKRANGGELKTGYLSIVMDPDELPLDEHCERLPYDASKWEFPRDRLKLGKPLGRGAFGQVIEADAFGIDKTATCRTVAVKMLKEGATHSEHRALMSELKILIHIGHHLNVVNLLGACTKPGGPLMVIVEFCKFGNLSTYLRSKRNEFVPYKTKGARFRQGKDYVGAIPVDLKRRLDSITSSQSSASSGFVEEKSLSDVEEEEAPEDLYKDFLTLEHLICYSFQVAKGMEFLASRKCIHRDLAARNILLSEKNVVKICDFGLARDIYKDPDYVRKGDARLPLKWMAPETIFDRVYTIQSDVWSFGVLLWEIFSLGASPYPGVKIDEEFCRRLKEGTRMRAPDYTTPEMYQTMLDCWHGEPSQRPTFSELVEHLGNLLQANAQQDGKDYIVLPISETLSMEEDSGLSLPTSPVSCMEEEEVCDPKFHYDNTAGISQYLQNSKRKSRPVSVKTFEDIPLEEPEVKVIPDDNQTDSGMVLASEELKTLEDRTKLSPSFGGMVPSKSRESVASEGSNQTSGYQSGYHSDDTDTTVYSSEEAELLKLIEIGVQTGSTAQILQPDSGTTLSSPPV

IC50 (human Tie2) [nM] | IC50 (human KDR enzyme) [nM] | SMILES
15 | – | Nc1n[nH]c2cc(-c3ccc(NS(=O)(=O)c4cccc(Cl)c4Cl)cc3)ccc12 [Example 2, 1-[4-(3-Amino-1H-indazol-6-yl)phenyl]-2,3-dichlorobenzenesulfonamide hydrochloride]
4 | 864 | O=C(Nc1n[nH]c2cc(-c3ccc(NS(=O)(=O)c4cccc(Cl)c4Cl)cc3)ccc12)c1ccsc1 [Example 3, 3-Thiophenecarboxylic acid {6-[4-(2,3dichlorobenzenesulfonylamino)phenyl]-1H-indazol-3-yl}amide]
2 | 1870 | O=C(Nc1n[nH]c2c(F)c(-c3ccc(NS(=O)(=O)c4cccc(Cl)c4Cl)cc3)ccc12)c1ccsc1 [Example 5, 3-Thiophenecarboxylic acid {6-[4-(2,3-dichlorobenzenesulfonylamino)-7-fluorophenyl]-1H-indazol-3-yl}amide]
10 | 6590 | Nc1n[nH]c2c(F)c(-c3ccc(NS(=O)(=O)c4cccc(Cl)c4Cl)cc3)ccc12 [Example 8, 1-[4-(3-Amino-1H-indazol-6-yl)-7-fluorophenyl]-2,3-dichlorobenzenesulfonamide hydrochloride]
